In the assay the target is GST-Xa-hAAK1 (Homo sapiens (Human), UniProt Q2M2I8). Kind of assay: AAK1 Kinase Assay. The class given is biochemical. The following applies: ATP 22 μM, 3 hours at room temperature.
GST-Xa-hAAK1, sequence (Q2M2I8 whole entry): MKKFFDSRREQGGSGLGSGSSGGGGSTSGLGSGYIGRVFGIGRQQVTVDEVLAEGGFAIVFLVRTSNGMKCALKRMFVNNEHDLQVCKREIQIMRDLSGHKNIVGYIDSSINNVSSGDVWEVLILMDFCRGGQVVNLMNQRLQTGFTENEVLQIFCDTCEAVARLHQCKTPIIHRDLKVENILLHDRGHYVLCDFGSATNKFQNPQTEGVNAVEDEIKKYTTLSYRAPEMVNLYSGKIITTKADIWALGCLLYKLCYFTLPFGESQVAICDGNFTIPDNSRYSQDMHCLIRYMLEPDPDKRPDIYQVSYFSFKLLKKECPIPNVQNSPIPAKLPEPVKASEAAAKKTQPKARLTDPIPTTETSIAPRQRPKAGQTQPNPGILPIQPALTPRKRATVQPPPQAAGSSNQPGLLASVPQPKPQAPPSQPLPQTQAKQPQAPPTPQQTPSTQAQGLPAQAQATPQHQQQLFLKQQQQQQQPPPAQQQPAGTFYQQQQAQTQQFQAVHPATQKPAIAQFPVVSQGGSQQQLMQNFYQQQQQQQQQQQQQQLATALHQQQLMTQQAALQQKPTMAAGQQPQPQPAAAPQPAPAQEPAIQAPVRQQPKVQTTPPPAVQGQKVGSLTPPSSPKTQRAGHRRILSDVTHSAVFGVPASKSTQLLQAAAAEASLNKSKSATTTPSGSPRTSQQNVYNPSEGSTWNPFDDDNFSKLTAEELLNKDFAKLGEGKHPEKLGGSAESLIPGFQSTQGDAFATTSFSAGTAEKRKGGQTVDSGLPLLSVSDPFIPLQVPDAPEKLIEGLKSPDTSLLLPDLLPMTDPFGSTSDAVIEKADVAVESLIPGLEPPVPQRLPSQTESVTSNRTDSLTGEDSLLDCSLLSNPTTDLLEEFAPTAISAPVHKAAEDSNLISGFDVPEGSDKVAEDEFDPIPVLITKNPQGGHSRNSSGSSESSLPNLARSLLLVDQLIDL

For the setting “listed as IC50 ranges”, `CC(C)c1nnc(-c2cccc(Nc3ncnn4ccc(CN5CCC(CN)C5)c34)c2)s1` (centres unmarked) [Example 31, 5-((3-(aminomethyl)pyrrolidin-1-yl)methyl)-N-(3-(5-isopropyl-1,3,4-thiadiazol-2-yl)phenyl)pyrrolo[2,1-f][1,2,4]triazin-4-amine] had an IC50 of 100 to 1000 nM.
The compound `CC(C)c1nc(-c2cccc(Nc3ncnn4cccc34)c2)no1` [Example 77, N-(3-(5-isopropyl-1,2,4-oxadiazol-3-yl)phenyl)pyrrolo[2,1-f][1,2,4]triazin-4-amine] registered an IC50 of 291 nM.
For `CNC1CCN(Cc2ccn3ncnc(Nc4cccc(-c5nnc(C6CC6)s5)c4)c23)CC1` [Example 24, N-(3-(5-cyclopropyl-1,3,4-thiadiazol-2-yl)phenyl)-5-((4-(methylamino)piperidin-1-yl)methyl)pyrrolo[2,1-f][1,2,4]triazin-4-amine], the IC50 (listed as IC50 ranges) lay within 10 to 100 nM.
The same measure, in the same setting: in the case of `CC(C)n1nnc(-c2cccc(Nc3ncnn4ccc(CN5CCOCC5)c34)c2)n1` [Example 57, N-(3-(2-isopropyl-2H-tetrazol-5-yl)phenyl)-5-(morpholinomethyl)pyrrolo[2,1-f][1,2,4]triazin-4-amine] it was 10 to 100 nM; in that of `CC(C)(C)c1nc(-c2cccc(Nc3ncnn4ccc(CN5CCC(N)CC5)c34)c2)no1` [Example 5, 5-((4-aminopiperidin-1-yl)methyl)-N-(3-(5-(tert-butyl)-1,2,4-oxadiazol-3-yl)phenyl)pyrrolo[2,1-f][1,2,4]triazin-4-amine], 10 to 100 nM; in that of `NC1CCN(Cc2ccn3ncnc(Nc4cccc(-c5noc(C6CC6)n5)c4)c23)CC1` [Example 47, 5-((4-aminopiperidin-1-yl)methyl)-N-(3-(5-cyclopropyl-1,2,4-oxadiazol-3-yl)phenyl)pyrrolo[2,1-f][1,2,4]triazin-4-amine], 10 to 100 nM.
On the same count and under the same terms, in the case of `Cc1nnc(-c2cccc(Nc3ncnn4ccc(CN5CCC(N)CC5)c34)c2)s1` [Example 17, 5-((4-aminopiperidin-1-yl)methyl)-N-(3-(5-methyl-1,3,4-thiadiazol-2-yl)phenyl)pyrrolo[2,1-f][1,2,4]triazin-4-amine] it was 100 to 1000 nM.
`CCOC(=O)c1ccn2ncnc(Nc3cccc(-c4nnc(C(C)C)s4)c3)c12` [Example 94, ethyl 4-((3-(5-isopropyl-1,3,4-thiadiazol-2-yl)phenyl)amino)pyrrolo[2,1-f][1,2,4]triazine-5-carboxylate]: half-maximal inhibition (IC50) was put at 474 nM.
Same read-out and setting: in the case of `Cc1ccn2ncnc(Nc3cccc(-c4noc(C(C)(C)CCl)n4)c3)c12` [Example 90, N-(3-(5-(1-chloro-2-methylpropan-2-yl)-1,2,4-oxadiazol-3-yl)phenyl)-5-methylpyrrolo[2,1-f][1,2,4]triazin-4-amine] it was 52 nM; in that of `CC(C)C[C@@H](N)C(=O)Nc1cccc(Nc2ncnn3ccc(C(=O)N4CCC(N)CC4)c23)c1` [Example 110, (R)-2-amino-N-(3-((5-(4-aminopiperidine-1-carbonyl)pyrrolo[2,1-f][1,2,4]triazin-4-yl)amino)phenyl)-4-methylpentanamide], 7710 nM; in that of `CC(C)NC(=O)c1ccn2ncnc(Nc3cccc(-c4nnn(C(C)C)n4)c3)c12` [Example 106, N-isopropyl-4-((3-(2-isopropyl-2H-tetrazol-5-yl)phenyl)amino)pyrrolo[2,1-f][1,2,4]triazine-5-carboxamide], 2350 nM.
On to `CNC1CCN(Cc2ccn3ncnc(Nc4cccc(-c5nnc(C)s5)c4)c23)CC1` [Example 18, N-(3-(5-methyl-1,3,4-thiadiazol-2-yl)phenyl)-5-((4-(methylamino)piperidin-1-yl)methyl)pyrrolo[2,1-f][1,2,4]triazin-4-amine], for which the IC50 (listed as IC50 ranges) lay in the range of 100 to 1000 nM.
On to `CC(C)n1nnc(-c2cccc(Nc3ncnn4ccc(CN5CC(C#N)C5)c34)c2)n1` [Example 64, 1-((4-((3-(2-isopropyl-2H-tetrazol-5-yl)phenyl)amino)pyrrolo[2,1-f][1,2,4]triazin-5-yl)methyl)azetidine-3-carbonitrile], for which the IC50 (listed as IC50 ranges) lay within 100 to 1000 nM.
Regarding `CC(C)(CCl)c1nc(-c2cccc(Nc3ncnn4cccc34)c2)no1` [Example 78, N-(3-(5-(1-chloro-2-methylpropan-2-yl)-1,2,4-oxadiazol-3-yl)phenyl)pyrrolo[2,1-f][1,2,4]triazin-4-amine], half-maximal inhibition (IC50) required 112 nM.
On the same count and under the same terms, under `CC(C)n1nnc(-c2cccc(NCc3ccn4ncnc(Nc5cccc(-c6nnn(C(C)C)n6)c5)c34)c2)n1` [Example 61, N-(3-(2-isopropyl-2H-tetrazol-5-yl)phenyl)-5-(((3-(2-isopropyl-2H-tetrazol-5-yl)phenyl)amino)methyl)pyrrolo[2,1-f][1,2,4]triazin-4-amine] stands 2580 nM.
Take `NC1CCN(Cc2ccn3ncnc(Nc4cccc(-c5nnc(C6CC6)s5)c4)c23)CC1` [Example 23, 5-((4-aminopiperidin-1-yl)methyl)-N-(3-(5-cyclopropyl-1,3,4-thiadiazol-2-yl)phenyl)pyrrolo[2,1-f][1,2,4]triazin-4-amine]: the IC50 (listed as IC50 ranges) fell in the range of 100 to 1000 nM.
With `CC(C)c1nc(-c2ccc(Cl)c(Nc3ncnn4ccc(CN5CCC(N)CC5)c34)c2)no1` [Example 43, 5-((4-aminopiperidin-1-yl)methyl)-N-(2-chloro-5-(5-isopropyl-1,2,4-oxadiazol-3-yl)phenyl)pyrrolo[2,1-f][1,2,4]triazin-4-amine], the IC50 stood at 265 nM. This counts as sub-micromolar.
Where the note is “listed as IC50 ranges”, `CC(C)c1nc(-c2cccc(Nc3ncnn4ccc(CN5CCC(N)CC5)c34)c2)no1` [Example 2, 5-((4-aminopiperidin-1-yl)methyl)-N-(3-(5-isopropyl-1,2,4-oxadiazol-3-yl)phenyl)pyrrolo[2,1-f][1,2,4]triazin-4-amine] returned an IC50 of 10 to 100 nM.
On the same count and under the same terms, in the case of `CC(C)n1nnc(-c2cccc(Nc3ncnn4ccc(CN5CCNCC5)c34)c2)n1` [Example 34, N-(3-(2-isopropyl-2H-tetrazol-5-yl)phenyl)-5-(piperazin-1-ylmethyl)pyrrolo[2,1-f][1,2,4]triazin-4-amine] it was 10 to 100 nM; in that of `CC(C)n1nnc(-c2cccc(Nc3ncnn4ccc(CN5[C@@H]6CC[C@H]5CN(C)C6)c34)c2)n1` [Example 60, N-(3-(2-isopropyl-2H-tetrazol-5-yl)phenyl)-5-(((1R,5S)-3-methyl-3,8-diazabicyclo[3.2.1]octan-8-yl)methyl)pyrrolo[2,1-f][1,2,4]triazin-4-amine], 100 to 1000 nM.
The same measure, in the same setting: under `CC(C)Oc1cc(Nc2ncnn3ccc(CN4CCC(N)CC4)c23)cc(-c2nnn(C(C)C)n2)c1` [Example 62, 5-((4-aminopiperidin-1-yl)methyl)-N-(3-isopropoxy-5-(2-isopropyl-2H-tetrazol-5-yl)phenyl)pyrrolo[2,1-f][1,2,4]triazin-4-amine] stands 100 to 1000 nM; under `c1cc(Nc2ncnn3ccc(CN4CC5CNCC5C4)c23)cc(-c2nnc(C3CC3)s2)c1` (centres unmarked) [Example 26, N-(3-(5-cyclopropyl-1,3,4-thiadiazol-2-yl)phenyl)-5-((hexahydropyrrolo[3,4-c]pyrrol-2(1H)-yl)methyl)pyrrolo[2,1-f][1,2,4]triazin-4-amine], 100 to 1000 nM; under `CC(C)c1nc(-c2ccc(F)c(Nc3ncnn4ccc(CN5CCC(N)CC5)c34)c2)no1` [Example 52, 5-((4-aminopiperidin-1-yl)methyl)-N-(2-fluoro-5-(5-isopropyl-1,2,4-oxadiazol-3-yl)phenyl)pyrrolo[2,1-f][1,2,4]triazin-4-amine], 100 to 1000 nM.

The term IC50 denotes the midpoint of a concentration-inhibition curve. A lower IC50 goes with greater potency.

Values taken from patent US9737542B2, “Pyrrolotriazine kinase inhibitors” (BRISTOL-MYERS SQUIBB COMPANY, priority 2013, dated 2017).
